The assay addresses TcMIP (Trypanosoma cruzi, UniProt Q09734). The assay can be described thus: biochemical.

This is an account of results in doi:10.1101/2023.04.24.538046v2 (biorxiv, 2023).

Chain of TcMIP (Q09734 30-196 limits assumed): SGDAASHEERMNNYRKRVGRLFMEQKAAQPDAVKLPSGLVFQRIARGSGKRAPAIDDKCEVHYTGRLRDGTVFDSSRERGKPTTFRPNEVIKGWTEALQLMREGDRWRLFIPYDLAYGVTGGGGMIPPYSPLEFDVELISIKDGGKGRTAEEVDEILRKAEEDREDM

The molecule `C[C@@H](c1ccccn1)N1C[C@H](CO)[C@H]2CCC[C@@H](C1=O)N2S(=O)(=O)c1cc(Cl)cc(Cl)c1` [JK236] showed a Kd of 45.5 ± 9.2 nM.
The same measure for `O=C1[C@@H]2CCC[C@H]([C@@H](CO)CN1Cc1ccccn1)N2S(=O)(=O)c1cc(Cl)cc(Cl)c1` [JK095, (1S,5S,6R)-10-((3,5-dichlorophenyl)sulfonyl)-5-(hydroxymethyl)-3-(pyridin-2-ylmethyl)-3,10-diazabicyclo [4.3.1]decan-2-one]: 599 ± 25.5 nM.

By Kd is commonly meant the concentration at which binding is half-saturated.
